Read-outs that look alike come from different tables or passages of the source.
Legend:
[1] = tested on: human duodenum monolayer culture; experiment: Increased trans-epithelial resistance (TEER) in human organoid monolayer cell cultures; type: cell-based; settings: 1 μM apical, baseline corrected
Description: Basal media (B consisted of advanced DMEM/F12 containing 10 mM HEPES (Invitrogen, 15630-080), 1:100 Glutamax (Invitrogen, 35050-061), and 1:100 penicillin/streptomycin (Invitrogen, 15140-122). Supplemented basal media (SBM) contained 1:100 N2 (Invitrogen, 17502-048), 1:50 B27 (Invitrogen, 12587-010), 1 mM N-acetylcysteine (Sigma, A9165), and 10 nM [Leu15]-gastrin I (Sigma, G9145). Growth factors used included 50 ng per mL mouse EGF (Peprotech, 315-09), 100 ng per mL mouse noggin (Peprotech, 250-38), 500 ng per mL human R-spondin 1 (R&D, 4645-RS), 100 ng per mL mouse Wnt-3a (R&D, 1324-WN), 20 μM Y-27632 (Tocris, 1254), 10 mM nicotinamide (Sigma, N0636), 500 nM A83-01 (Tocris, 2939), 10 μM SB202190 (Tocris, 1264). Transwells were 0.4 μm pore polyester membrane 24-well Transwell inserts (Corning). Cultures were incubated at 37° C. in 5% CO2.
Human duodenum organoids were cultured in WENRNAS (Wnt, EGF, noggin, R-spondin1, Nicotinamide, A83-01, SB202190) and typically grown for 7-12 days before being used to plate monolayer cultures. On day 0, organoid cultures embedded in Matrigel were treated with TrypLE Express to break organoids into small pieces and/or single cells. The cells were resuspended to 0.5×10^6 cells/mL in SBM containing WENRAY (Wnt, EGF, noggin, R-spondin1, A83-01, Y-27632). Following this step, 200 μL of cell suspension was plated into the apical side of a 24-well Transwell (100,000 cells/well) and 600 μL of SBM with WENRAY was added to the basolateral side. Duodenum cells were differentiated with ENA (EGF, noggin, A83-01) on day 3. The color of apical compartment turns from pink or orange to yellow due to the increase in NHE3 expression after differentiation.
Each human duodenum monolayer culture well was washed twice with fresh SBM on the apical side on day 6 or day 7 before dosing. All compound stocks were 10 mM dissolved DMSO. Each compound stock was individually mixed with fresh SBM to reach final compound concentration 1 μM and dosed only on the apical side of the monolayer (total volume 200 μl). DMSO at the equivalent concentration was used as the vehicle control. Duplicate wells were dosed for each compound. Transepithelial electrical resistance (TEER) was used as a quantitative technique to measure of tight junction permeability. TEER values were recorded (MERS00002, Millipore) before dosing and 30 mins and 1 hr after dosing for all wells. Each of the duplicate TEER values following treatment were corrected for the individual well baseline TEER. Baseline corrected TEER for each example compound was compared to the average of the DMSO wells and expressed as a percent TEER of vehicle control.

NHE3 = molecular target: T1, NHE3 (Homo sapiens, UniProt P48764); experiment: Cell-based assay of NHE-3 activity (pre-incubation inhibition), human; settings: human Preincubation
T1 construct: expressed in transfected cells
T1 sequence (P48764 26-834): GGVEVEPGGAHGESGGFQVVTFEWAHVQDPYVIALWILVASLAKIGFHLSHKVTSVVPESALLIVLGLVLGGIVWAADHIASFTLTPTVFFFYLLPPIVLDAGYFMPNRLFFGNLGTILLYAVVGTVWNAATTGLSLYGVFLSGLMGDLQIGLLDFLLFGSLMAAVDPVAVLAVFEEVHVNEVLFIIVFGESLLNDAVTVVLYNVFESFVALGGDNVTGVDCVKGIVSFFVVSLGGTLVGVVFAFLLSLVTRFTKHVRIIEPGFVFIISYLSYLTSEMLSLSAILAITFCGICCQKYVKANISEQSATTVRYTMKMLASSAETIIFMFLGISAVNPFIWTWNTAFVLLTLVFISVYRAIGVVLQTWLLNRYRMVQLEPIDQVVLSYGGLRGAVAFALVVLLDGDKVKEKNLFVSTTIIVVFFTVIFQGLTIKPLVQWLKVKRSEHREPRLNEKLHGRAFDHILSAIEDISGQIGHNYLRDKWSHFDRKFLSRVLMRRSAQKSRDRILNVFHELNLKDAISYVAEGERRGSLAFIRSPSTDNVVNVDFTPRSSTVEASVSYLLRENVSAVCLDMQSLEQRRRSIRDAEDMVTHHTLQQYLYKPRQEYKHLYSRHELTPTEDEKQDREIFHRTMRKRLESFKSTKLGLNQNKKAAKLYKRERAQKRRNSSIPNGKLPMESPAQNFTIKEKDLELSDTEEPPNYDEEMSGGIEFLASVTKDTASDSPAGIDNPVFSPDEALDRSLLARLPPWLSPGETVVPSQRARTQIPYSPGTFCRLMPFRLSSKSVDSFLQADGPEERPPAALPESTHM
T1 sequence (Q99653 2-195 partner limits assumed): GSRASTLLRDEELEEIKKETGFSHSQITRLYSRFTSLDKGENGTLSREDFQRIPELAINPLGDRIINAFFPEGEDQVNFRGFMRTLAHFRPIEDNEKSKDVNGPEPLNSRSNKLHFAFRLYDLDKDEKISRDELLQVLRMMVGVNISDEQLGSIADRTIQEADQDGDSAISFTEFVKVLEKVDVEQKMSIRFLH
How it was run: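 Activity read as initial rate of BCECF fluorescence ratio change per minute (ex 439/505, em 538 nm) following NH4Cl prepulse acid loading. Compound (0–30 μM) present during 10 min Na+-free acidification at room temperature; cells were PS120 fibroblasts stably co-expressing human NHE3 and NHERF2.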

[2] = 1 hr after dosing, read-out: TEER at 60 minutes (% of Vehicle)
[3] = 0.5 h, 30 mins after dosing, read-out: TEER at 30 minutes (% of Vehicle)

Q: What does the source list for `O=C(NCCCCNC(=O)NCCOCCOCCNS(=O)(=O)c1ccc(O[C@H]2c3cc(Cl)cc(Cl)c3C[C@@H]2N2CCNCC2)c(F)c1)NCCOCCOCCNS(=O)(=O)c1ccc(O[C@H]2c3cc(Cl)cc(Cl)c3C[C@@H]2N2CCNCC2)c(F)c1` [Example 33, 3-[2-(2-[2-[(4-[[(1S,2S)-4,6-Dichloro-2-(piperazin-1-yl)-2,3-dihydro-1H-inden-1-yl]oxy]-3-fluorobenzene)sulfonamido]ethoxy]ethoxy)ethyl]-1-[4-[[(2-(2-[2-[(4-[[(1S,2S)-4,6-dichloro-2-(piperazin-1-yl)-2,3-dihydro-1H-inden-1-y]oxy]-3-fluorobenzene)sulfonamido]ethoxy]ethoxy)ethyl]carbamoyl]amino)butyl]urea; bis(trifluoroacetic acid)]?
A: activity at 1 µM [1, 2]: > 130%; activity at 1 µM [1, 3]: 100 to 130%; % inhibition (NHE3): C (>70%)

Q: Which activity at 1 µM [1, 2] does the source give for `N#Cc1cc(Cl)cc2c1C[C@H](N1CCNCC1)[C@H]2Oc1ccc(S(=O)(=O)NCCOCCOCCNC(=O)NCCCCNC(=O)NCCOCCOCCNS(=O)(=O)c2ccc(O[C@H]3c4cc(Cl)cc(C#N)c4C[C@@H]3N3CCNCC3)cc2)cc1` [Example 41, 3-[2-(2-[2-[(4-[[(1S,2S)-6-Chloro-4-cyano-2-(piperazin-1-yl)-2,3-dihydro-1H-inden-1-yl]oxy]benzene)sulfonamido]ethoxy]ethoxy)ethyl]-1-[4-([[2-(2-[2-[(4-[[(1S,2S)-6-chloro-4-cyano-2-(piperazin-1-yl)-2,3-dihydro-1H-inden-1-yl]oxy]benzene)sulfonamido]ethoxy]ethoxy)ethyl]carbamoyl]amino)butyl]urea; bis(trifluoroacetic acid)] here?
A: Its activity at 1 µM is 100 to 130%.

Q: And the activity at 1 µM [1, 3]?
A: Its activity at 1 µM is 100 to 130%.

Q: What about the “% inhibition” value (NHE3) of the same compound?
A: Its value is “C (>70%)”.

Q: What about the pIC50 (NHE3; 0-30 μM test compound) of the same compound?
A: The pIC50 was “C (NHE3 pIC50 > 7)”.

Q: With `Cc1cc(S(=O)(=O)NCCOCCOCCNC(=O)NCCCCNC(=O)NCCOCCOCCNS(=O)(=O)c2ccc(O[C@H]3c4cc(Cl)cc(C#N)c4C[C@@H]3N3CCNCC3)c(C)c2)ccc1O[C@H]1c2cc(Cl)cc(C#N)c2C[C@@H]1N1CCNCC1` [Example 42, 3-[2-(2-[2-[(4-[[(1S,2S)-6-Chloro-4-cyano-2-(piperazin-1-yl)-2,3-dihydro-1H-inden-1-yl]oxy]-3-methylbenzene)sulfonamido]ethoxy]ethoxy)ethyl]-1-[4-([[2-(2-[2-[(4-[[(1S,2S)-6-chloro-4-cyano-2-(piperazin-1-yl)-2,3-dihydro-1H-inden-1-yl]oxy]-3-methylbenzene)sulfonamido]ethoxy]ethoxy)ethyl]carbamoyl]amino)butyl]urea; bis(trifluoroacetic acid)] as the compound, how does the activity at 1 µM [1, 2] read?
A: Its activity at 1 µM is greater than 130%.

Q: What about the activity at 1 µM [1, 3] of the same compound?
A: The activity at 1 µM was 100 to 130%.

Q: What about the “% inhibition” value (NHE3) of the same compound?
A: Its value is “C (>70%)”.

Q: What about the pIC50 (NHE3; 0-30 μM test compound) of the same compound?
A: Its pIC50 is “C (NHE3 pIC50 > 7)”.

Q: How did the activity at 1 µM [1, 2] turn out when `N#Cc1cc(Cl)cc2c1C[C@H](N1CCNCC1)[C@H]2Oc1ccc(S(=O)(=O)NCCOCCOCCNC(=O)NCCCCNC(=O)NCCOCCOCCNS(=O)(=O)c2ccc(O[C@H]3c4cc(Cl)cc(C#N)c4C[C@@H]3N3CCNCC3)c(F)c2)cc1F` [Example 43, 3-[2-(2-[2-[(4-[[(1S,2S)-6-Chloro-4-cyano-2-(piperazin-1-yl)-2,3-dihydro-1H-inden-1-yl]oxy]-3-fluorobenzene)sulfonamido]ethoxy]ethoxy)ethyl]-1-[4-([[2-(2-[2-[(4-[[(1S,2S)-6-chloro-4-cyano-2-(piperazin-1-yl)-2,3-dihydro-1H-inden-1-yl]oxy]-3-fluorobenzene)sulfonamido]ethoxy]ethoxy)ethyl]carbamoyl]amino)butyl]urea; bis(trifluoroacetic acid)] was run?
A: Its activity at 1 µM is 100 to 130%.

Q: What about the activity at 1 µM [1, 3] of the same compound?
A: Its activity at 1 µM is 100 to 130%.

Q: What about the “% inhibition” value (NHE3) of the same compound?
A: The value was “C (>70%)”.

Q: What about the pIC50 (NHE3; 0-30 μM test compound) of the same compound?
A: The pIC50 was “C (NHE3 pIC50 > 7)”.

Q: `Cc1cc(S(=O)(=O)N[C@H]2CCN(CCOCCNC(=O)NCCCCNC(=O)NCCOCCN3CC[C@H](NS(=O)(=O)c4ccc(O[C@H]5c6cc(Cl)cc(Cl)c6C[C@@H]5N(C)C)c(C)c4)C3=O)C2=O)ccc1O[C@H]1c2cc(Cl)cc(Cl)c2C[C@@H]1N(C)C` [Example 91, 1-(2-[2-[(3S)-3-[(4-[[(1S,2S)-4,6-Dichloro-2-(dimethylamino)-2,3-dihydro-1H-inden-1-yl]oxy]-3-methylbenzene)sulfonamido]-2-oxopyrrolidin-1-yl]ethoxy]ethyl)-3-(4-[[(2-[2-[(3S)-3-[(4-[[(1S,2S)-4,6-dichloro-2-(dimethylamino)-2,3-dihydro-1H-inden-1-yl]oxy]-3-methylbenzene)sulfonamido]-2-oxopyrrolidin-1-yl]ethoxy]ethyl)carbamoyl]amino]butyl)urea] was tested. Which activity at 1 µM [1, 2] did it give?
A: Its activity at 1 µM is 100 to 130%.

Q: And the activity at 1 µM [1, 3]?
A: The activity at 1 µM was 100 to 130%.

Q: What about the “% inhibition” value (NHE3) of the same compound?
A: Its value is “C (>70%)”.

Q: And the pIC50 (NHE3; 0-30 μM test compound)?
A: Its pIC50 is “C (NHE3 pIC50 > 7)”.

Q: With `O=C(NCCCCNC(=O)NCCOCCN1CC[C@@H](NS(=O)(=O)c2ccc(O[C@H]3c4cc(Cl)cc(Cl)c4C[C@@H]3N3CCNCC3)c(F)c2)C1)NCCOCCN1CC[C@@H](NS(=O)(=O)c2ccc(O[C@H]3c4cc(Cl)cc(Cl)c4C[C@@H]3N3CCNCC3)c(F)c2)C1` [Example 105, 4-([(1S,2S)-4,6-Dichloro-2-(piperazin-1-yl)-2,3-dihydro-1H-inden-1-yl]oxy)-N—[(R)-1-(20-[(R)-3-([4-([(1S2S)-4,6-dichloro-2-(piperazin-1-yl)-2,3-dihydro-1H-inden-1-yl]oxy)-3-fluorophenyl]sulfonamido)pyrrolidin-1-yl]-7,14-dioxo-3,18-dioxa-6,8,13,15-tetraazaicosyl)pyrrolidin-3-yl]-3-fluorobenzenesulfonamide; tetra(trifluoroacetate)] as the compound, how does the activity at 1 µM [1, 2] read?
A: Its activity at 1 µM is greater than 130%.

Q: What about the activity at 1 µM [1, 3] of the same compound?
A: Its activity at 1 µM is greater than 130%.

Q: And the “% inhibition” value (NHE3)?
A: Its value is “C (>70%)”.

Q: What about the IC50 (NHE3; 0-30 μM test compound) of the same compound?
A: The IC50 was less than 100 nM.

Q: For `O=C(NCCCCNC(=O)NCCOCCN1CC[C@H](NS(=O)(=O)c2ccc(O[C@H]3c4cc(Cl)cc(Cl)c4C[C@@H]3N3CCNCC3)c(F)c2)C1)NCCOCCN1CC[C@H](NS(=O)(=O)c2ccc(O[C@H]3c4cc(Cl)cc(Cl)c4C[C@@H]3N3CCNCC3)c(F)c2)C1` [Example 106, 4-([(1S,2S)-4,6-Dichloro-2-(piperazin-1-yl)-2,3-dihydro-1H-inden-1-yl]oxy)-N—[(S)-1-(20-[(S)-3-([4-([(1S,2S)-4,6-dichloro-2-(piperazin-1-yl)-2,3-dihydro-1H-inden-1-yl]oxy)-3-fluorophenyl]sulfonamido)pyrrolidin-1-yl]-7,14-dioxo-3,18-dioxa-6,8,13,15-tetraazaicosyl)pyrrolidin-3-yl]-3-fluorobenzenesulfonamide; tetra(trifluoroacetate)], which activity at 1 µM [1, 2] is on record?
A: Its activity at 1 µM is greater than 130%.

Q: And the activity at 1 µM [1, 3]?
A: The activity at 1 µM was greater than 130%.

Q: And the “% inhibition” value (NHE3)?
A: Its value is “C (>70%)”.

— patent US11242337B2, “Compounds useful for treating gastrointestinal tract disorders” (Ardelyx, Inc., priority 2017, dated 2022)
